13 compounds from ChEMBL document CHEMBL4706559, “New indolylarylsulfone non-nucleoside reverse transcriptase inhibitors show low nanomolar inhibition of single and double HIV-1 mutant strains” (Eur J Med Chem, 2020) can be followed below.

Series [1] relates to Human immunodeficiency virus 1. In words: Resistance index, ratio of EC50 for antiviral activity against HIV1 harboring RT K103N/Y181C double mutant infected in human MT4 cells to EC50 for antiviral activity against HIV1 NL4-3 infected in human MT4 cells. The series is classed as functional.
In series [2] the test system is Human immunodeficiency virus 1. In words: Antiviral activity against HIV1 harboring RT K103N mutant infected in human MT4 cells assessed as protection against virus-induced cytopathic effect by MTT assay. As to conditions: Human immunodeficiency virus 1, MT4. Format: functional, organism-based. (Damage to the host cells serves as the signal in cytopathic effect assays.)

The nature of series [3]: Cytotoxicity against human MT-4 cells assessed as reduction in cell viability by MTT assay. Format: cell-based, MT4. A general note: Tetrazolium dyes change colour on reduction, which living cells bring about.
The test system of series [4] is Human immunodeficiency virus 1. In words: Resistance index, ratio of EC50 for antiviral activity against HIV1 harboring RT Y181C mutant infected in human MT4 cells to EC50 for antiviral activity against HIV1 NL4-3 infected in human MT4 cells. The series is classed as functional.
The test system of series [5] is Human immunodeficiency virus 1. In words: Antiviral activity against HIV1 harboring RT Y188L mutant infected in human MT4 cells assessed as protection against virus-induced cytopathic effect by MTT assay. The series is classed as functional, organism-based. As to conditions: Human immunodeficiency virus 1, MT4.
Series [6] relates to Human immunodeficiency virus 1. Nature of the series: Resistance index, ratio of EC50 for antiviral activity against HIV1 harboring RT Y188L mutant infected in human MT4 cells to EC50 for antiviral activity against HIV1 NL4-3 infected in human MT4 cells. The series is classed as functional.
A short description of series [7]: Selectivity ratio of CC50 for human MT4 cells to EC50 for antiviral activity against HIV-1 NL4-3 infected in human MT4 cells. The note with it: read-out: Ratio CC50/EC50. The series is classed as toxicity, cell-based.
For series [8], the system named is Human immunodeficiency virus 1. Nature of the series: Resistance index, ratio of EC50 for antiviral activity against HIV1 harboring RT K103N mutant infected in human MT4 cells to EC50 for antiviral activity against HIV1 NL4-3 infected in human MT4 cells. The series is classed as functional.
Series [9] concerns Human immunodeficiency virus 1. In words: Antiviral activity against HIV1 harboring RT Y181C mutant infected in human MT4 cells assessed as protection against virus-induced cytopathic effect by MTT assay. The series is classed as functional, organism-based. As to conditions: Human immunodeficiency virus 1, MT4.
In series [10] the test system is Human immunodeficiency virus 1. In words: Antiviral activity against HIV1 harboring RT K103N/Y181C double mutant infected in human MT4 cells assessed as protection against virus-induced cytopathic effect by MTT assay. The series is classed as functional, organism-based. As to conditions: Human immunodeficiency virus 1, MT4.
Series [11] relates to Human immunodeficiency virus 1. Nature of the series: Antiviral activity against HIV-1 NL4-3 infected in human MT-4 cells assessed as virus induced cytopathic effect by MTT assay. Format: functional, organism-based. As to conditions: Human immunodeficiency virus 1, NL4-3, MT4.
Series [12] is described as follows: Inhibition of RNA-dependent DNA polymerase activity of recombinant HIV-1 p66/p51 reverse transcriptase K103N/Y181C mutant assessed as inhibition of [3H]dTTP incorporation using poly(rA)/oligo(dT) as templates incubated for 15 mins by MicroBeta scintillation counting method. Also noted: species or system Human immunodeficiency virus 1.
The nature of series [13]: Inhibition of RNA-dependent DNA polymerase activity of recombinant HIV-1 p66/p51 reverse transcriptase Y188L mutant assessed as inhibition of [3H]dTTP incorporation using poly(rA)/oligo(dT) as templates incubated for 15 mins by MicroBeta scintillation counting method. More on the design: species or system Human immunodeficiency virus 1.
For series [14], the target named is Human immunodeficiency virus type 1 reverse transcriptase (Human immunodeficiency virus 1, UniProt Q72547). In words: Inhibition of RNA-dependent DNA polymerase activity of wild type recombinant HIV-1 His-tagged p66/p51 reverse transcriptase assessed as inhibition of [3H]dTTP incorporation using poly(rA)/oligo(dT) as templates incubated for 15 mins by MicroBeta scintillation counting method.

The target in series [15] is Human immunodeficiency virus type 1 reverse transcriptase (Human immunodeficiency virus 1, UniProt Q72547, K103N). Nature of the series: Inhibition of RNA-dependent DNA polymerase activity of recombinant HIV-1 p66/p51 reverse transcriptase K103N mutant assessed as inhibition of [3H]dTTP incorporation using poly(rA)/oligo(dT) as templates incubated for 15 mins by MicroBeta scintillation counting method.

The EC50 is the concentration needed to bring the measured effect to its halfway point. The term CC50 denotes the concentration that lowers cell viability or growth by half. `Cc1cc(C)cc(S(=O)(=O)c2c(C(=O)NCC(=O)NCc3cccc(O)c3)[nH]c3ccc(Cl)cc23)c1`: the “Ratio EC50” value in [1] is listed as over 5925; in series [4] it was over 13; in series [6], over 6590; in series [8], over 728. For the same compound, the EC50 is 437 nM in series [2]; 3950 nM in series [5]; 7.6 nM in series [9]; 3560 nM in series [10]; under 0.6 nM in series [11]. For the same compound, the CC50 in series [3] is over 47500 nM. Also, in series [7], the selectivity ratio was over 79200.

Usually IC50 stands for the point on the concentration scale where inhibition reaches its midpoint. With `Cc1cc(C)cc(S(=O)(=O)c2c(C(=O)NCc3ccc(O)cc3)[nH]c3ccc(Cl)cc23)c1`, the “Ratio EC50” value in series [1] is listed as over 1006; in series [6], over 944. The EC50 is under 0.7 nM in series [2]; 661 nM in series [5]; under 0.7 nM in series [9]; 704 nM in series [10]; under 0.7 nM in [11]. Besides, in series [3], the CC50 was 6250 nM. The IC50 in [12] amounted to 628 nM; in series [13], 50 nM; in series [14] it was 61 nM; in series [15], 45 nM. In addition, the selectivity ratio in series [7] is over 8930.

As for `Cc1cc(C#N)cc(C)c1Oc1nc(Nc2ccc(C#N)cc2)nc(N)c1Br` [ETRAVIRINE], the EC50 in series [2] turned out to be 0.7 nM; in series [5], 16 nM; in series [9], 18 nM; in series [10], 4.6 nM; in [11] it was 16.1 nM. Further, the CC50 in series [3] was over 23000 nM. Moreover, the IC50 amounted to 97 nM in [12] and 164 nM in series [13].

Turning to `Cc1cc(C)cc(S(=O)(=O)c2c(C(=O)NC(C)C(=O)NCc3ccccc3O)[nH]c3ccc(Cl)cc23)c1` (configuration not stated), the “Ratio EC50” value in [1] is on record as over 8733; in series [4] it was over 68; in series [6], 10925; in series [8], over 62. In addition, the EC50 in series [2] is 37 nM; in [5] it was 6560 nM; in [9], 41 nM; in [10], 5240 nM; in [11], under 0.6 nM. For the same compound, the CC50 in [3] amounted to 14400 nM. Further, the selectivity ratio in series [7] is over 23900.

Regarding `Cc1cc(C)cc(S(=O)(=O)c2c(C(=O)Nc3ccc(O)cc3)[nH]c3ccc(Cl)cc23)c1`, the “Ratio EC50” value in series [1] is over 1381; in series [6] it was over 1413. In addition, the 50% effective concentration (EC50) was under 0.7 nM in [2]; 989 nM in [5]; under 0.7 nM in series [9]; 967 nM in series [10]; under 0.7 nM in series [11]. Moreover, the CC50 in series [3] was 18100 nM. Moreover, the IC50 in series [12] stood at 375 nM; in [13] it was 81 nM; in [14] it was 69 nM; in [15], 106 nM. Also, the selectivity ratio in series [7] was over 25800.

In the case of `Cc1cc(C)cc(S(=O)(=O)c2c(C(=O)NC(C)c3cccc(O)c3)[nH]c3ccc(Cl)cc23)c1` (configuration not stated), the “Ratio EC50” value was 857 in series [1], 14 in [4] and 237 in series [6]. The EC50 is under 0.7 nM in series [2]; 166 nM in [5]; 10 nM in series [9]; 600 nM in [10]; under 0.7 nM in [11]. In addition, the CC50 in series [3] was found to be 16000 nM. Besides, the selectivity ratio in series [7] was over 22800.

Consider `Cc1cc(C)cc(S(=O)(=O)c2c(C(=O)NCC(=O)NCc3ccccc3O)[nH]c3ccc(Cl)cc23)c1`, for which the “Ratio EC50” value in series [1] is over 7701; in series [4] it was over 3.2; in [6] it was over 2.8; in series [8], over 251. Also, the EC50 is 151 nM in series [2]; 1.7 nM in [5]; 1.9 nM in series [9]; 4620 nM in [10]; under 0.6 nM in series [11]. Besides, the CC50 in series [3] is over 47300 nM. In series [7], the selectivity ratio is over 78900.

For `Cc1cc(C)cc(S(=O)(=O)c2c(C(=O)NCc3ccc(CO)cc3)[nH]c3ccc(Cl)cc23)c1`, the entries for the “Ratio EC50” value in series [1] and in series [4] were over 4703 and over 31, respectively. Moreover, the EC50 in series [2] is under 0.7 nM; in series [9] it was 22 nM; in series [10], 3290 nM; in [11], under 0.7 nM. Also, the CC50 in [3] stood at 31100 nM. Besides, the IC50 amounted to 188 nM in [12], 178 nM in [13], 38 nM in series [14] and 79 nM in series [15]. Further, the selectivity ratio in [7] was over 44400.

For `COc1cc(CNC(=O)c2[nH]c3ccc(Cl)cc3c2S(=O)(=O)c2cc(C)cc(C)c2)ccc1O`, the “Ratio EC50” value in series [1] came to 1871; in series [4], 3.3; in series [6], 367. The EC50 in series [2] was under 0.6 nM; in series [5], 220 nM; in series [9], 2 nM; in [10] it was 1120 nM; in series [11], under 0.6 nM. The CC50 in series [3] was 28700 nM. Further, the selectivity ratio in series [7] was over 47800.

With `Cc1cc(C)cc(S(=O)(=O)c2c(C(=O)NCc3cccc(O)c3)[nH]c3ccccc23)c1`, the “Ratio EC50” value is recorded as over 2584 in [1], over 30 in [4] and over 1808 in series [6]. Besides, the EC50 in series [2] was under 0.7 nM; in series [5], 1270 nM; in series [9], 21 nM; in series [10] it was 1810 nM; in series [11], under 0.7 nM. The CC50 in series [3] is over 5200 nM. In addition, the selectivity ratio in series [7] is over 3640.

For `Cc1cn([C@H]2C[C@H](N=[N+]=[N-])[C@@H](CO)O2)c(=O)[nH]c1=O` [ZIDOVUDINE], the CC50 in [3] was over 30600 nM. In addition, the “Ratio EC50” value worked out at 1.6 in [4], 8.9 in series [6] and 4.3 in series [8]. Also, the selectivity ratio in series [7] was over 8270. For the same compound, the 50% effective concentration (EC50) in series [10] worked out at 16 nM; in series [11] it was 3.7 nM.

Take `Cc1cc(C)cc(S(=O)(=O)c2c(C(=O)NCc3ccc(O)c(O)c3)[nH]c3ccc(Cl)cc23)c1`: the entries for the “Ratio EC50” value in series [1], in [4] and in series [6] were over 4624, over 5.9 and over 100, respectively. Also, the EC50 in [2] was under 0.7 nM; in [5], 70 nM; in series [9] it was 4.1 nM; in series [10], 3240 nM; in [11] it was under 0.7 nM. In addition, in series [3], the CC50 is 18300 nM. In addition, in [7], the selectivity ratio is over 26200.

For `Cc1cc(C)cc(S(=O)(=O)c2c(C(=O)NCCc3ccc(O)cc3)[nH]c3ccc(Cl)cc23)c1`, the “Ratio EC50” value is 6152 in series [1], over 141 in [4], over 39103 in [6] and over 276 in [8]. Besides, the EC50 is 166 nM in [2]; over 27400 nM in [5]; 85 nM in series [9]; 4310 nM in [10]; under 0.7 nM in series [11]. Moreover, in series [3], the CC50 was 27400 nM. Further, the selectivity ratio in [7] was over 39100.
